Measurements: the supplement of paper PMC10883282

What was measured:
Experiment in all cases: relative viability vs DMSO control (72 h) (fraction); higher = more viable cells
[1] = test system: RD-ES
Outline: (§1)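 Sarcoma cell lines were plated in 384 wells to reach 80–90% confluence, treated after 24 h with 2.5 µl of serially diluted compound and held 72 h at 37 °C, 5% CO2. Relative viability was taken as percent growth from ATPLite readings, averaged over up to triplicate wells. The values were rescaled so that 1 marks full and 0 marks none.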

[2] = test system: HS729
Outline: as §1

[3] = test system: RD
Outline: as §1

[4] = test system: HT1080
Outline: as §1

[5] = test system: SW684
Outline: as §1

[6] = test system: SW1353
Outline: as §1

[7] = test system: KHOS-240S
Outline: as §1

[8] = test system: SYO-1
Outline: as §1

[9] = test system: KHOS-NP
Outline: as §1

[10] = test system: SW872
Outline: as §1

[11] = test system: SK-LMS-1
Outline: as §1

[12] = test system: G401
Outline: as §1

N#Cc1ccnc(N2C(=O)CC[C@H]2C(=O)N(c2cncc(F)c2)[C@H](C(=O)NC2CC(F)(F)C2)c2ccccc2Cl)c1 [Ivosidenib]
Conditions	relative viability
[1], 0.00017 µM	0.948
[1], 0.00051 µM	0.976
[1], 0.00152 µM	1
[1], 0.00457 µM	0.977
[1], 0.01372 µM	0.996
[1], 0.04115 µM	0.986
[1], 0.1235 µM	1
[1], 0.3704 µM	1.02
[1], 1.111 µM	0.986
[1], 3.333 µM	0.973
[1], 10 µM	0.9403
[2], 0.00017 µM	0.966
[2], 0.00051 µM	1
[2], 0.00152 µM	1.01
[2], 0.00457 µM	1.01
[2], 0.01372 µM	0.998
[2], 0.04115 µM	0.993
[2], 0.1235 µM	1.01
[2], 0.3704 µM	1
[2], 1.111 µM	0.982
[2], 3.333 µM	0.949
[2], 10 µM	0.96
[3], 0.00017 µM	1.04
[3], 0.00051 µM	1.02
[3], 0.00152 µM	1.03
[3], 0.00457 µM	1.05
[3], 0.01372 µM	1.05
[3], 0.04115 µM	1.06
[3], 0.1235 µM	1.07
[3], 0.3704 µM	1.03
[3], 1.111 µM	1.04
[3], 3.333 µM	1.02
[3], 10 µM	0.944
[4], 0.00017 µM	0.987
[4], 0.00051 µM	1.07
[4], 0.00152 µM	1.03
[4], 0.00457 µM	1.0513
[4], 0.01372 µM	1.09
[4], 0.04115 µM	1.07
[4], 0.1235 µM	1.11
[4], 0.3704 µM	1.106
[4], 1.111 µM	1.1
[4], 3.333 µM	1.09
[4], 10 µM	1.05
[5], 0.00017 µM	1.056
[5], 0.00051 µM	1.07
[5], 0.00152 µM	1.08
[5], 0.00457 µM	1.11
[5], 0.01372 µM	1.13
[5], 0.04115 µM	1.06
[5], 0.1235 µM	1.11
[5], 0.3704 µM	1.1
[5], 1.111 µM	1.1
[5], 3.333 µM	1.1
[5], 10 µM	1
[6], 0.00017 µM	0.966
[6], 0.00051 µM	0.94
[6], 0.00152 µM	0.976
[6], 0.00457 µM	0.935
[6], 0.01372 µM	0.976
[6], 0.04115 µM	0.972
[6], 0.1235 µM	0.949
[6], 0.3704 µM	0.98
[6], 1.111 µM	0.929
[6], 3.333 µM	0.973
[6], 10 µM	0.972
[7], 0.00017 µM	1.03
[7], 0.00051 µM	1.04
[7], 0.00152 µM	1.04
[7], 0.00457 µM	1.057
[7], 0.01372 µM	1.04
[7], 0.04115 µM	1.046
[7], 0.1235 µM	1.02
[7], 0.3704 µM	1.03
[7], 1.111 µM	1.02
[7], 3.333 µM	1.022
[7], 10 µM	0.998
[8], 0.00017 µM	1.03
[8], 0.00051 µM	1.01
[8], 0.00152 µM	1.07
[8], 0.00457 µM	1.02
[8], 0.01372 µM	1.01
[8], 0.04115 µM	1.01
[8], 0.1235 µM	1.02
[8], 0.3704 µM	1.01
[8], 1.111 µM	1.02
[8], 3.333 µM	1.01
[8], 10 µM	1
[9], 0.00017 µM	1.05
[9], 0.00051 µM	1.05
[9], 0.00152 µM	1.07
[9], 0.00457 µM	1.07
[9], 0.01372 µM	1.05
[9], 0.04115 µM	1.05
[9], 0.1235 µM	1.06
[9], 0.3704 µM	1.03
[9], 1.111 µM	1.05
[9], 3.333 µM	1.05
[9], 10 µM	1.06
[10], 0.00017 µM	1.03
[10], 0.00051 µM	1.04
[10], 0.00152 µM	1.04
[10], 0.00457 µM	1.052
[10], 0.01372 µM	1.06
[10], 0.04115 µM	1.03
[10], 0.1235 µM	1.03
[10], 0.3704 µM	1.04
[10], 1.111 µM	1.05
[10], 3.333 µM	1.047
[10], 10 µM	1.04
[11], 0.00017 µM	1.01
[11], 0.00051 µM	1.01
[11], 0.00152 µM	1.033
[11], 0.00457 µM	1.04
[11], 0.01372 µM	1.04
[11], 0.04115 µM	1.02
[11], 0.1235 µM	1.03
[11], 0.3704 µM	0.968
[11], 1.111 µM	0.997
[11], 3.333 µM	0.968
[11], 10 µM	0.954
[12], 0.00017 µM	0.926
[12], 0.00051 µM	0.927
[12], 0.00152 µM	0.971
[12], 0.00457 µM	1.01
[12], 0.01372 µM	0.952
[12], 0.04115 µM	0.934
[12], 0.1235 µM	0.99
[12], 0.3704 µM	0.943
[12], 1.111 µM	0.958
[12], 3.333 µM	0.929
[12], 10 µM	0.896

COc1cc2nccc(Oc3ccc(NC(=O)NC4CC4)c(Cl)c3)c2cc1C(N)=O [Lenvatinib]
Conditions	relative viability
[1], 0.00017 µM	0.959
[1], 0.00051 µM	0.98
[1], 0.00152 µM	0.959
[1], 0.00457 µM	0.961
[1], 0.01372 µM	0.923
[1], 0.04115 µM	0.942
[1], 0.1235 µM	0.875
[1], 0.3704 µM	0.857
[1], 1.111 µM	0.852
[1], 3.333 µM	0.835
[1], 10 µM	0.815
[2], 0.00017 µM	1.01
[2], 0.00051 µM	1.07
[2], 0.00152 µM	1.04
[2], 0.00457 µM	1.04
[2], 0.01372 µM	1.016
[2], 0.04115 µM	1.014
[2], 0.1235 µM	0.945
[2], 0.3704 µM	0.833
[2], 1.111 µM	0.702
[2], 3.333 µM	0.621
[2], 10 µM	0.542
[3], 0.00017 µM	0.985
[3], 0.00051 µM	0.993
[3], 0.00152 µM	1.04
[3], 0.00457 µM	1.04
[3], 0.01372 µM	1.02
[3], 0.04115 µM	1.02
[3], 0.1235 µM	1.04
[3], 0.3704 µM	1.047
[3], 1.111 µM	1.04
[3], 3.333 µM	1.08
[3], 10 µM	0.984
[4], 0.00017 µM	1.07
[4], 0.00051 µM	1.06
[4], 0.00152 µM	1.08
[4], 0.00457 µM	1.05
[4], 0.01372 µM	1.08
[4], 0.04115 µM	1.06
[4], 0.1235 µM	1.06
[4], 0.3704 µM	1.07
[4], 1.111 µM	1.09
[4], 3.333 µM	1.09
[4], 10 µM	1.12
[5], 0.00017 µM	1.13
[5], 0.00051 µM	1.12
[5], 0.00152 µM	1.14
[5], 0.00457 µM	1.133
[5], 0.01372 µM	1.13
[5], 0.04115 µM	1.13
[5], 0.1235 µM	1.11
[5], 0.3704 µM	1.14
[5], 1.111 µM	1.16
[5], 3.333 µM	1.19
[5], 10 µM	1.11
[6], 0.00017 µM	1.01
[6], 0.00051 µM	0.999
[6], 0.00152 µM	0.986
[6], 0.00457 µM	0.982
[6], 0.01372 µM	0.931
[6], 0.04115 µM	0.943
[6], 0.1235 µM	0.902
[6], 0.3704 µM	0.872
[6], 1.111 µM	0.859
[6], 3.333 µM	0.83
[6], 10 µM	0.817
[7], 0.00017 µM	0.992
[7], 0.00051 µM	1
[7], 0.00152 µM	1.03
[7], 0.00457 µM	1.01
[7], 0.01372 µM	0.977
[7], 0.04115 µM	0.938
[7], 0.1235 µM	0.913
[7], 0.3704 µM	0.824
[7], 1.111 µM	0.738
[7], 3.333 µM	0.72
[7], 10 µM	0.6606
[8], 0.00017 µM	1.07
[8], 0.00051 µM	1.02
[8], 0.00152 µM	1.02
[8], 0.00457 µM	0.9627
[8], 0.01372 µM	0.864
[8], 0.04115 µM	0.721
[8], 0.1235 µM	0.606
[8], 0.3704 µM	0.504
[8], 1.111 µM	0.472
[8], 3.333 µM	0.459
[8], 10 µM	0.432
[9], 0.00017 µM	1.07
[9], 0.00051 µM	1.04
[9], 0.00152 µM	1.05
[9], 0.00457 µM	1.07
[9], 0.01372 µM	1.08
[9], 0.04115 µM	1.08
[9], 0.1235 µM	1.06
[9], 0.3704 µM	1.091
[9], 1.111 µM	1.07
[9], 3.333 µM	1.09
[9], 10 µM	1.08
[10], 0.00017 µM	1.07
[10], 0.00051 µM	1.1
[10], 0.00152 µM	1.08
[10], 0.00457 µM	1.07
[10], 0.01372 µM	1.05
[10], 0.04115 µM	1.05
[10], 0.1235 µM	1.03
[10], 0.3704 µM	1.05
[10], 1.111 µM	1.06
[10], 3.333 µM	1.05
[10], 10 µM	0.953
[11], 0.00017 µM	1.02
[11], 0.00051 µM	1.01
[11], 0.00152 µM	1.04
[11], 0.00457 µM	1.05
[11], 0.01372 µM	0.998
[11], 0.04115 µM	1.04
[11], 0.1235 µM	0.997
[11], 0.3704 µM	1.04
[11], 1.111 µM	0.98
[11], 3.333 µM	0.953
[11], 10 µM	0.972
[12], 0.00017 µM	0.992
[12], 0.00051 µM	0.981
[12], 0.00152 µM	1.01
[12], 0.00457 µM	0.982
[12], 0.01372 µM	1.006
[12], 0.04115 µM	0.974
[12], 0.1235 µM	0.919
[12], 0.3704 µM	0.848
[12], 1.111 µM	0.55
[12], 3.333 µM	0.434
[12], 10 µM	0.357
